Assay results taken from US6541486B1, “Bis-benzimidazole compounds and analogs thereof for inhibiting cell death” (Elan Pharma International Ltd., priority 1999, dated 2003).
“Also recorded” adds a separate entry of the source.

Experiments:
[1] = test system: Oxygen/Glucose Deprived RGCs (retinal ganglion cells); test: Protection of oxygen/glucose deprived (OGD) retinal ganglion cells, EC50; details: overall judgement
Protocol: Each compound was added to control cells and to cells deprived of oxygen and glucose for the time period from 30 minutes prior to OGD, during OGD, and for 24 and 48 hours after OGD.
RGCs from postnatal day 8 (P8) Sprague-Dawley rats were purified as previously described (Barres et al., 1988; Meyer-Franke et al., 1995). Purified retinal ganglion cells were plated onto tissue culture plastic precoated with poly-D-lysine and merosin, and cultured in serum-free Neurobasal medium (Gibco) containing various supplements.
Approximately 5,000 purified RGCs were cultured in 96-well plates (Falcon), precoated with poly-D-lysine (PDL, 70 kD, 10 mg/ml; Sigma) and merosin (2 mg/ml; Gibco). The RGCs were cultured in serum-free Neurobasal medium (Brewer et al., 1993; Gibco) containing Sato-Bottenstein and B27 (Gibco) supplement, insulin (Sigma, 5 mg/ml), brain-derived neurotrophic factor (BDNF, 25 ng/ml; Preprotech), ciliary neurotrophic factor (CNTF, 20 ng/ml; Preprotech) and forskolin (10 mM, Sigma). The percentage of surviving cells was assessed at 3, 7, and 14 days by the MTT assay.
Retinal ganglion cells were grown in 96-well plates for 5 days in serum-free medium as described above. On the sixth day cells were washed three times in a salt solution, e.g. Earle's balanced salt solution (EBSS, Gibco), containing glucose for control cells, and lacking glucose for test cells (oxygen/glucose-deprived cells). Control cells were further incubated in a 5% CO2 incubator while OGD cells were deprived of oxygen in an anaerobic chamber (for 3 hours). Test compounds were added to control cells and OGD cells for the time period from 30 minutes prior to OGD, during OGD, and for 24 and 48 hours after OGD.
After 3 hours OGD, control and test cells were transferred to growth medium with glucose and cultured an additional 48 hours in a 5% CO2 incubator, followed by a determination of cell viability using MTT, propidium iodide and annexin assays.
For the cell viability assay, MTT was added to culture and incubated at 37° C. for 1 hr. […] Viable and dead cells are counted by bright field microscopy at various times, e.g. 24, 48, or 72 hours after oxygen/glucose and/or growth factor deprivation. All values are reported as the mean (average) +/− the standard error of the mean (SEM) for at least three replicate cultures.

[2] = test system: OGD cells (retinal ganglion cells); test: Increase in survival of OGD cells at fixed concentrations (similar assay); type: cell-based, rat
[3] = test system: Oxygen/Glucose Deprived Cardiac Myocytes; test: Protection of oxygen/glucose deprived cardiac myocytes; type: cell-based
Protocol: The hypoxic cardiac myocyte (CM) has been used as a simplified model of myocardial ischemia. In the present study, cultures of CM's were deprived of oxygen and glucose for 8 hours, then also exposed to 24-48 hours reoxygenation. It is known that reperfusion of the damaged areas can be one of the major mechanisms of myocardial cellular injury. […] Cell survival was quantitated as described above.

[4] = test system: rat middle cerebral artery occlusion (MCAO) model of focal ischemia; test: MCAO in vivo stroke model: ischemic, infarct and edema volumes; details: for Reducing post-ischemic damage (in words): rats; for % Protection, Cortical infarct volume / % Protection, Cortical penumbra / % Protection, Edema / % Protection, Subcortical infarct volume / % Protection, Subcortical penumbra / % Protection, Total infarct volume / % Protection, Total ischemic volume: rat
Protocol: Compounds were administered by either an IV (intravenous) or ICV (intracerebroventricular) route in the MCAO model, described above and in Example 18. The extent of ischemic damage in the absence and presence of compound was assessed by visualization of coronal brain slices. Conversion of 2,3,5-triphenyltetrazolium chloride (TTC) to formazan in normal tissue produces a red color. Unstained areas (white) constitute the infarct, whereas pink areas between white (infarction) and red stained areas (normal brain) define the ischemia penumbra. Preliminary studies confirmed that tissues stained pink contained mixed populations of living and dead cells.
Results are also illustrated in FIGS. 2-3 for ICV administration and FIGS. 4-5 for IV administration.
Adult male Wistar rats weighing 310-380 g were used. Animals were fasted overnight but allowed free access to water. Anesthesia was induced and maintained with 3% isoflurane in […]. Systemic blood pressure was recorded before, during and after middle cerebral artery occlusion (MCAO) and immediately before administering the test compound. Subjects received test compound SNX 912, 5 mg/kg ICV pre-MCAO, or 25 mg/kg IV immediately following reperfusion, after two hours MCAO, as compared to control subjects, which received deionized water. Temperature was controlled and recorded before, during and following reperfusion. After reperfusion, temperature was measured every hour for 4 hrs post-reperfusion.
All animals were subjected to 2 hr of MCAO using the intraluminal filament technique of Koizume et al. (1986) as modified by Zhao et al. (1994). A midline surgical incision was made to expose the right common, external and internal carotid arteries. The common cartotid, external carotid and occipital arteries were tightly ligated, and the internal carotid artery was temporarily closed with a microvascular clip. A small incision was made in the common carotid artery and a nylon monofilament was inserted into the internal carotid artery through the common carotid artery. The filament was then carefully advanced 19 mm cephalad to occlude the middle cerebral artery at its site of origin within the Circle of Willis. […] After 2 hr of MCAO, the animals were re-anesthetized with 1.5% halothane, and the occlude filament was withdrawn to allow reperfusion.
Because MCAO by the intraluminal filament technique can give rise to intra- and post-ischemia hyperthermia, rectal temperature was controlled by external heating and cooling for 6 hrs after initiating MCAO. Rectal temperature was maintained at 37.5+/−0.5° C.
Animals were killed 24 hr post-reperfusion by CO2 asphyxiation. Following asphyxiation, the brains were quickly removed and chilled in ice cold 0.9% saline for 10 min. To visualize the extent of ischemic damage, seven 2 mm thick coronal slices were cut from each brain with a tissue slicer beginning with 1 mm posterior to the anterior pole. The slices were immersed in a 0.9% saline solution containing 1.0% 2,3,5-tripheyltetrazolim chloride (TTC) and incubated at 37° C. for 30 minutes, and observed for the presence of formazan (red), which is produced by the reduction of TTC by endogenous dehydrogenase activity in normal living tissues.

[5] = 8 hrs OGD / 24 hrs reoxygenation
[6] = 8 hrs OGD / 48 hrs reoxygenation
[7] = IV (25 mg/kg) immediately following reperfusion after 2 h MCAO

Nc1cccc2[nH]c(Cc3nc4ccccc4[nH]3)nc12 [SNX 912, 2-(benzimidazol-2′-yl)methyl-4-amino benzimidazole]
Effectiveness in protecting OGD RGCs (in words, from Tables 5 and 6) [1]: more effective overall than the unsubstituted compound | Percent Increase in Survival over OGD Control Cells ([2]; Concn 0.001 μM): ++ (50%-100% increase) | Percent Increase in Survival over OGD Control Cells ([2]; Concn 0.01 μM): ++ (50%-100% increase) | Percent Increase in Survival over OGD Control Cells ([2]; Concn 0.1 μM): ++ (50%-100% increase) | Percent Increase in Survival over OGD Control Cells ([2]; Concn 1 μM): +++ (>100% increase) | Percent Increase in Survival over OGD Control Cells ([2]; Concn 10 μM): +++ (>100% increase) | EC50 [3, 5]: 310 nM | TI (therapeutic index) [3, 5]: >30 | EC50 [3, 6]: 55 nM | TI (therapeutic index) [3, 6]: >200 | Protection of cardiac myocytes from apoptotic cell death (in words) ([3]; compared to untreated OGD cells, dose dependent, nanomolar concentrations): protected the cardiac myocytes from apoptotic cell death; also recorded: effective | Reducing post-ischemic damage (in words) ([4]; 5 mg/kg ICV): effective | Reducing post-ischemic damage (in words) ([4]; 25 mg/kg IV): effective | % Protection, Cortical infarct volume ([4]; ICV (5 mg/kg) pre-MCAO): 76% | % Protection, Cortical penumbra ([4]; ICV (5 mg/kg) pre-MCAO): 30% | % Protection, Edema ([4]; ICV (5 mg/kg) pre-MCAO): 80% | % Protection, Subcortical infarct volume ([4]; ICV (5 mg/kg) pre-MCAO): 75% | % Protection, Subcortical penumbra ([4]; ICV (5 mg/kg) pre-MCAO): 7% | % Protection, Total infarct volume ([4]; ICV (5 mg/kg) pre-MCAO): 76% | % Protection, Total ischemic volume ([4]; ICV (5 mg/kg) pre-MCAO): 47% | % Protection, Cortical infarct volume [4, 7]: 53% | % Protection, Cortical penumbra [4, 7]: 10% | % Protection, Edema [4, 7]: 26% | % Protection, Subcortical infarct volume [4, 7]: 55% | % Protection, Subcortical penumbra [4, 7]: 18% | % Protection, Total infarct volume [4, 7]: 55% | % Protection, Total ischemic volume [4, 7]: 32%

O=[N+]([O-])c1cccc2[nH]c(Cc3nc4c([N+](=O)[O-])cccc4[nH]3)nc12 [SNX 901, 4,4′-dinitro*]
Effectiveness in protecting OGD RGCs (in words, from Tables 5 and 6) [1]: more effective overall than the unsubstituted compound | Percent Increase in Survival over OGD Control Cells ([2]; Concn 0.01 μM): ++ (50%-100% increase) | Percent Increase in Survival over OGD Control Cells ([2]; Concn 0.1 μM): ++ (50%-100% increase) | Percent Increase in Survival over OGD Control Cells ([2]; Concn 10 μM): +++ (>100% increase) | Percent Increase in Survival over OGD Control Cells ([2]; Concn .1 μM): +++ (>100% increase)
